Earlier results on 2 compounds are cited in publication PMC13151045, “Accounting for Differences in Plasma Protein Binding between Fish and Humans for Supporting Environmental Risk Assessment of Pharmaceuticals Using the Fish Plasma Model” (Environmental Science & Technology, 2026).

The conditions of this series: minimum reported human therapeutic plasma concentration; ref footnote e of Table 4.

Regarding `CC1Cc2ccccc2N1NC(=O)c1ccc(Cl)c(S(N)(=O)=O)c1` (centres unmarked) [Indapamide], the “Human C max” value was 55.8 ng/mL. Consider `CC(C)NCC(O)COc1cccc2ccccc12` (centres unmarked) [Propranolol], for which the “Human C max” value was 20 ng/mL.
